{
  "source": "ChEMBL document CHEMBL6103564",
  "about": "“Selective Degradation of TEADs by a PROTAC Molecule Exhibited Robust Anticancer Efficacy In Vitro and In Vivo” (J Med Chem, 2025)",
  "key": {"in vivo [1]": {"experiment": "in vivo", "conditions": "ICR, mouse, iv, 5 mg/kg"}, "in vivo [2]": {"experiment": "in vivo", "conditions": "ICR, mouse, iv, 5 mg/kg", "remark": "listed apart in the source"}, "in vivo [3]": {"experiment": "in vivo", "conditions": "ICR, mouse, iv, 5 mg/kg", "remark": "listed apart in the source"}, "in vivo [4]": {"experiment": "in vivo", "conditions": "ICR, mouse, iv, 5 mg/kg", "remark": "listed apart in the source"}, "in vivo [5]": {"experiment": "in vivo", "conditions": "ICR, mouse, iv, 5 mg/kg", "remark": "listed apart in the source"}, "in vivo [6]": {"experiment": "in vivo", "conditions": "ICR, mouse, iv, 5 mg/kg", "remark": "listed apart in the source"}, "in vivo [7]": {"experiment": "in vivo", "conditions": "ICR, mouse, iv, 5 mg/kg", "remark": "listed apart in the source"}, "in vivo [8]": {"experiment": "in vivo", "conditions": "ICR, mouse, ip, 10 mg/kg"}, "in vivo [9]": {"experiment": "in vivo", "conditions": "ICR, mouse, ip, 10 mg/kg", "remark": "listed apart in the source"}, "in vivo [10]": {"experiment": "in vivo", "conditions": "ICR, mouse, ip, 10 mg/kg", "remark": "listed apart in the source"}, "in vivo [11]": {"experiment": "in vivo", "conditions": "ICR, mouse, ip, 10 mg/kg", "remark": "listed apart in the source"}, "in vivo [12]": {"experiment": "in vivo", "conditions": "ICR, mouse, ip, 10 mg/kg", "remark": "listed apart in the source"}, "in vivo [13]": {"experiment": "in vivo", "conditions": "ICR, mouse, po, 10 mg/kg"}, "in vivo [14]": {"experiment": "in vivo", "conditions": "ICR, mouse, po, 5 mg/kg"}, "in vivo [15]": {"experiment": "in vivo", "conditions": "ICR, mouse, po, 5 mg/kg", "remark": "listed apart in the source"}, "in vivo [16]": {"experiment": "in vivo", "conditions": "ICR, mouse, po, 5 mg/kg", "remark": "listed apart in the source"}, "in vivo [17]": {"experiment": "in vivo", "conditions": "ICR, mouse, po, 5 mg/kg", "remark": "listed apart in the source"}},
  "data": [
    {"molecule": "COCCOc1ccc(C(N)=O)c(-c2c(Cl)ccc3c2C[C@@](CNCCC2CCN(c4ccc5c(c4)C(=O)N(C4CCC(=O)NC4=O)C5=O)CC2)(c2ccccc2)O3)c1F", "note": "(some centres not stated)", "values": [
      {"measurement": "half-life", "setting": "in vivo [1]", "value": 1.94, "unit": "h"},
      {"measurement": "AUC(0-t)", "setting": "in vivo [2]", "value": 1220, "unit": "ng·h/mL"},
      {"measurement": "AUC(0-inf)", "setting": "in vivo [3]", "value": 1240, "unit": "ng·h/mL"},
      {"measurement": "Vd", "setting": "in vivo [4]", "value": 11.5, "unit": "L/kg"},
      {"measurement": "clearance", "setting": "in vivo [5]", "value": 70.6, "unit": "mL/min/kg"},
      {"measurement": "Vd", "setting": "in vivo [6]", "value": 3.79, "unit": "L/kg"},
      {"measurement": "MRT", "setting": "in vivo [7]", "value": 0.69, "unit": "h"},
      {"measurement": "half-life", "setting": "in vivo [8]", "value": 2.68, "unit": "h"},
      {"measurement": "Cmax", "setting": "in vivo [9]", "value": 1160, "unit": "ng/mL"},
      {"measurement": "AUC(0-t)", "setting": "in vivo [10]", "value": 2960, "unit": "ng·h/mL"},
      {"measurement": "AUC(0-inf)", "setting": "in vivo [11]", "value": 3000, "unit": "ng·h/mL"},
      {"measurement": "MRT", "setting": "in vivo [12]", "value": 2.76, "unit": "h"},
      {"measurement": "bioavailability", "setting": "in vivo [13]", "value": 121, "unit": "%"},
      {"measurement": "Cmax", "setting": "in vivo [14]", "value": 7.86, "unit": "ng/mL"},
      {"measurement": "AUC(0-t)", "setting": "in vivo [15]", "value": 5.39, "unit": "ng·h/mL"},
      {"measurement": "MRT", "setting": "in vivo [16]", "value": 0.51, "unit": "h"},
      {"measurement": "bioavailability", "setting": "in vivo [17]", "value": 0.44, "unit": "%"}
    ]}
  ]
}
